# Measurements taken from paper PMC6152194 (Molecules : A Journal of Synthetic Chemistry and Natural …, 2017).
# “And” between values parts separate entries of the source, which are not always exact repeats. Equal entries are not always repeated. Where two headings read alike, the source gives them in different places.
# Tests used:
# horse BChE [1] = molecular target: T1, horse BChE (Equus caballus, UniProt P81908); settings: hydrolysis of BSCh by horse BChE, same conditions; cited from earlier work
# T1 construct: purchased Worthington Biochemical Corporation
# horse BChE [2] = molecular target: T1, horse BChE; test: biochemical; format: biochemical; settings: for type of inhibition: hydrolysis of 50 μM BSCh, progress curves to 600 s; for Kon: pH 7.0
# Description: Purified horse BChE was from Worthington Biochemical Corporation, dithio-bis-di-nitro benzoic acid and butyrylthiocholine iodide (BSCh) were from Sigma, tetramethylammonium iodide (TMA), tetraethylammonium iodide (TEA), edrophonium chloride (EDR), and methanesulfonylfluoride (MSF) were from BDH; decamethonium bromide (DME) was from Koch Light Laboratories; sodium fluoride and d-Tubocurarine were from Fluka AG. N-((1-benzylpiperidin-3-yl)methyl)-N-methylnaphthalene-2-sulfonamide (942) was synthesized in the Faculty of Pharmacy, University of Ljubljana (Ljubljana, Slovenia). All other reagents used were of analytical grade. The experiments were carried out at 25 °C in 25 mM phosphate buffer, pH 7.0.
# A series of compounds were tested by measuring the progress curves for BSCh hydrolysis by horse BChE in the absence and presence of each compound at a single concentration over 10 min, in a 0.6 mL cuvette, using the method of Ellman et al.. […] The concentration of horse BChE, which was always added last, was ~1 nM, for hydrolysis of 50 μM BSCh to completion (in most cases), in the presence of 1 mM dithio-bis-di-nitro benzoic acid. Reaching the plateau was important to get an exact estimate of the actual initial BSCh concentration. This was achieved by conversion of the change in absorbance at 412 nm of the resulting thio-nitro benzoate, using a molar absorption coefficient of 13,800 mol^−1 cm^−1. All of the measurements were conducted using a conventional spectrophotometer (Lambda 45/Vis; Perkin-Elmer), and a 10-s lag period was added before the start of each measurement. The progress curves were then extrapolated to start at the origin prior to the analysis.
# The progress-curve analysis was performed using the ENZO web application (Figure 2), implemented at www.enzo.cmm.ki.si. For rapid determination of the kinetics mechanisms and parameters, the Van Slyke–Cullen reaction scheme for substrate hydrolysis by horse BChE was combined with a reversible competitive inhibition mechanism, as expected for active-site-directed ligands. […] In the initial evaluation, all of the second-order binding rate constants (kon’s), although not the constant for MSF, were set to the diffusion rate-limited value of 2 ×10^8 M^−1 s^−1. Therefore, only the first-order dissociation rate constants, together with the substrate specificity constant kcat/Km, the initial substrate concentration, and the added horse BChE active-site concentration, had to be evaluated. The kcat of 663 s^−1 for the hydrolysis of BSCh by horse BChE was taken from a previous study performed under the same conditions.
# Therefore, a similar experiment was performed, but in the presence of three additional sodium fluoride concentrations (0.25, 1, 2.5 mM). Each of these measurements was performed twice in a row to determine the reliability of the data obtained. The progress curve analysis was then performed using four types of classical inhibition mechanisms: competitive, uncompetitive, non-competitive, and mixed. Again, a 10-s lag period was added to the time-course of each measurement prior to the analysis using the ENZO web application.
# [3] = 50 μM BSCh, 25 °C, 25 mM phosphate buffer pH 7.0, single progress curve, competitive mechanism, read-out: Ki
# [4] = slow isomerization step after instantaneous binding, 50 μM BSCh
# T1 sequence (P81908 whole entry): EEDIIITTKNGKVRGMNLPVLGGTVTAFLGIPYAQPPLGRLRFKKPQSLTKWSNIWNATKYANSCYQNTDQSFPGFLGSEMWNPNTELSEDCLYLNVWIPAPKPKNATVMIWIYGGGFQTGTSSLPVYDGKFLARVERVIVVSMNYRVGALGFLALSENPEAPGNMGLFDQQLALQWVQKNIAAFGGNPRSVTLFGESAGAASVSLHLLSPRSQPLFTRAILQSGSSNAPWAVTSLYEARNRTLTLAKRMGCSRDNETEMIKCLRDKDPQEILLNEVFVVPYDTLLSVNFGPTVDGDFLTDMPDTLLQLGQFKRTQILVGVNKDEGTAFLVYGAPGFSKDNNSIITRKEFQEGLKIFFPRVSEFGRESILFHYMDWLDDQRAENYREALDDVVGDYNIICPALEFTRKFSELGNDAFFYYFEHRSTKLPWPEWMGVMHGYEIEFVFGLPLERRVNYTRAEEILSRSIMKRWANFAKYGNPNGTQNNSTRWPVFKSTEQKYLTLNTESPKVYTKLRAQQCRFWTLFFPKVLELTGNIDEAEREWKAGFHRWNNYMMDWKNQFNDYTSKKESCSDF
smiles,measurement,setting,value
"CCCC(=O)SCC[N+](C)(C)C.[I-] [BSCh, butyrylthiocholine iodide]",kcat,horse BChE [1],663 s⁻¹
"C[N+](C)(C)CCCCCCCCCC[N+](C)(C)C [Decamethonium, decamethonium bromide]",Ki,horse BChE [2],7.6 µM
same,type of inhibition,horse BChE [2],reversible competitive inhibitors
"CC[N+](C)(C)c1cccc(O)c1 [Edrophonium, edrophonium chloride]",Ki,horse BChE [2],21 µM
same,type of inhibition,horse BChE [2],reversible competitive inhibitors
"CS(=O)(=O)F [Methanesulfonylfluoride, methanesulfonylfluoride]",type of inhibition,horse BChE [2],irreversible inhibitor
same,Kon,"horse BChE [2]; irreversible inhibition step, 15 mM MSF, 50 μM BSCh, 25 °C",0.39 s⁻¹
"[F-].[Na+] [Sodium fluoride, sodium fluoride]",Ki,"horse BChE [2]; competitive component of mixed inhibition, from Figure 3, 0.25, 0.5, 1 and 2.5 mM sodium fluoride, 50 μM BSCh, read-out: Ki",830 µM
same,type of inhibition,horse BChE [2],mixed reversible inhibitor
same,uncompetitive component stronger than the competitive component,"horse BChE [2]; mixed inhibition model, Table 1",2.4 fold
same,Kii,"horse BChE [2]; uncompetitive component of mixed inhibition, from Figure 3, 0.25, 0.5, 1 and 2.5 mM sodium fluoride, 50 μM BSCh",0.34 mM
"CC[N+](CC)(CC)CC.[I-] [Tetraethylammonium, tetraethylammonium iodide]",Ki,horse BChE [2]; [3],1500 µM
same,type of inhibition,horse BChE [2],reversible competitive inhibitors
"C[N+](C)(C)C.[I-] [Tetramethylammonium, tetramethylammonium iodide]",Ki,horse BChE [2]; [3],2400 µM
same,type of inhibition,horse BChE [2],reversible competitive inhibitors
"CN(CC1CCCN(Cc2ccccc2)C1)S(=O)(=O)c1ccc2ccccc2c1 (centres unmarked) [compound 942, N-((1-benzylpiperidin-3-yl)methyl)-N-methylnaphthalene-2-sulfonamide]",Kon,"horse BChE [2]; association rate constant, 50 μM BSCh, 25 °C",6.2e+07 M⁻¹ s⁻¹ and 6.2 M⁻¹ s⁻¹
same,type of inhibition,horse BChE [2],tight binder
same,Ki,horse BChE [2]; read-out: Ki,0.00043 µM
COc1cc2c3cc1Oc1cc(ccc1O)C[C@@H]1c4c(cc(OC)c(O)c4Oc4ccc(cc4)C[C@@H]3N(C)CC2)CC[N+]1(C)C [d-Tubocurarine],Ki,horse BChE [2],5.1 µM
same,type of inhibition,horse BChE [2],slow binder
same,K+isomerization,horse BChE [2]; [4],0.029 s⁻¹
same,K-isomerization,horse BChE [2]; [4],0.010 s⁻¹
[I-].[Na+] [sodium iodide],inhibition of BSCh hydrolysis,"horse BChE [2]; at 0.5 mM, data not shown",no inhibition
